# Test results published in PMC6570783, “The Novel C5aR Antagonist DF3016A Protects Neurons Against Ischemic Neuroinflammatory Injury” (Neurotoxicity Research, 2019).
# Assays:
# [1] = test system: PMN migration induced by fMLP; test: fMLP-induced PMN migration; type: cell-based; conditions: up to 10 μM
# Procedure: (§8) Migration of human, rat, and mouse PMNs was evaluated using a 48-well micro-chemotaxis chamber, as previously described (Bertini et al. [2004]). […] The chamber was incubated at 37 °C in air with 5% CO2 for 45 min. At the end of incubation, filters containing migrated cells were removed, fixed, and stained with Diff-Quik, and five oil immersion fields at high magnification (×100; Zeiss microscope) were counted after sample coding.
# mouse C5aR = mouse C5aR (Mus musculus, UniProt P30993); conditions: read-out: IC50, mouse C5aR (C5a-induced PMN migration); mouse PMNs, 10 nM mC5a
# Procedure: (§1) Murine and rat PMNs were isolated from peritoneal cavities injected with 1.5 ml of 3% thioglycolate in saline to male Balb/c mice (20–25 g and 7–9 weeks of age, provided by Charles River, Calco, Italy) or with […] of 3% thioglycolate in saline to SD rat (370–450 g and 3–4 months of age provided by Charles River, UK). Four hours after injection, the animals were sacrificed by decapitation and peritoneal cavities were washed with saline. PMNs were recovered and centrifuged at 600×g for 10 min. The pellet was resuspended in Hank’s Balanced Salt Solution (HBSS); then the cells were counted using Türk’s solution and diluted at 3 × 10^6 cells/ml.
# (§2) Migration of human, rat, and mouse PMNs was evaluated using a 48-well micro-chemotaxis chamber, as previously described (Bertini et al. [2004]). […] Fifty microliters of cell suspension (1.5 × 10^6/ml for human PMNs, 3.0 × 10^6/ml for rat and mouse PMNs) pre-incubated at 37 °C for 15 min in the presence or absence of different concentrations of DF3016A or vehicle was seeded in the upper compartment. The chamber was incubated at 37 °C in air with 5% CO2 for 45 min. At the end of incubation, filters containing migrated cells were removed, fixed, and stained with Diff-Quik, and five oil immersion fields at high magnification (×100; Zeiss microscope) were counted after sample coding.
# rat C5aR = rat C5aR (Rattus norvegicus, UniProt P97520); conditions: read-out: IC50, rat C5aR (C5a-induced PMN migration); rat PMNs, 10 nM rC5a
# Sequence of rat C5aR (P97520 whole entry): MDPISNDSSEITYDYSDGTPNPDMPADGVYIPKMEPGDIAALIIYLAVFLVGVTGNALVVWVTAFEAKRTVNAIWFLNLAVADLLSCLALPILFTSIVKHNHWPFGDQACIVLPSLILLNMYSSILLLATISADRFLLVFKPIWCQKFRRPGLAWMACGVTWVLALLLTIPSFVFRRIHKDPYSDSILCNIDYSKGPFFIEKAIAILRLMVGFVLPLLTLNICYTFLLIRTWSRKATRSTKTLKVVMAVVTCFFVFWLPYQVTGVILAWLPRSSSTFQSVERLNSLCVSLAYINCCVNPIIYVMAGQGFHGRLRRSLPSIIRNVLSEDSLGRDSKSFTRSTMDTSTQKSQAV
# Procedure: as §1, §2
# [2] = test system: primary rat cortical neurons; test: Neuronal viability (MTS), toxicity of DF3016A
# Procedure: Neuronal cultures were prepared from cortices of 17–18-day-old Sprague-Dawley rat fetuses. Two pregnant rats, provided from Envigo RMS S.r.l. (Z.I. Azzida, 57–33,049 S. Pietro al Natisone, Udine Italy), were euthanized by exposition to a gradually rising concentration of CO2 and then decapitated. Rat brains were isolated using standard procedures, and after the elimination of meninges, the cortical tissues were dissociated by trituration and digestion with 20 U/ml papain (Invitrogen, Karlsruhe, Germany) for 30 min at 37 °C. Approximately 1 × 10^6 cells in 1 ml DMEM/F12 medium containing 0.2 mM Glutamax, 1% penicillin/streptomycin (Pen/Strep), 5% fetal bovine serum, and 5% horse serum were seeded into poly-D-lysine pretreated plates. […] Neurons were maintained in a humidified atmosphere (5% CO2/95% air) at 37 °C and used for experiments after 8–10 days in vitro.
# DF3016A was dissolved in DMSO. The final concentration of DMSO in the medium was below 0.1%. […]
# Quantifications of neuronal viability were assessed by MTS method using Cell Titer One Solution Cell Proliferation Assay (Promega Corporation Madison, WI, USA) based on 3-(4,5-dimethylthiazol-2-yl)-5-(3-carboxymethoxyphenil)-2-(4-sulfophenyl)-2H-tetrazolium (MTS) (dilution 1:10). Viable cells with active metabolism convert MTT into formazan, detected by absorbance measurements at 490 nm in a BioTeek Elx800 microplate reader.
# TNF-α = TNF-α release (ELISA) in OGD/R neurons; type: cell-based, rat; conditions: 500 nM
# Procedure: (§3) Quantitative measurements of cellular proteins (C5a, TNF-α, IL-1β, and IL-6) in cell culture supernatants were determined by ELISA methods using Rat IL-6, Mouse TNFα, Rat IL-1β PicoKine™ ELISA Kits (Boster Biological Technology) and Rat C5a ELISA Kit (Elabscience Biotechnology Inc.) according to the manufacturer’s instructions. All tests were performed in triplicate.
# [3] = test system: cortical neurons exposed to OGD/R; test: AO/ET staining of live and dead neurons after OGD/R; type: cell-based, rat; conditions: 500 nM, OGD/R 3 h
# Procedure: DF3016A (500 nM) was added to the cortical neurons which were exposed to O2 and glucose deprivation with glucose-free Neurobasal in Hypoxia Chamber for Cell Culture (BioSpherix) at 5% CO2 atmosphere-85% N2. O2 concentration was monitored by using a ProOx sensor controller, and the 0.03% O2 value was considered acceptable. Cells were incubated in this anaerobic chamber for 1 h and then removed from the anaerobic environment. […] Cells of control group were treated identically except that they were not exposed to OGD/R.
# Images have been acquired through a fluorescent microscope combined with a Digital Color Camera.
# [4] = test system: PMN migration induced by CXCL8; test: CXCL8-induced PMN migration; type: cell-based; conditions: up to 10 μM
# Procedure: as §8
# [5] = test system: PMN migration induced by CCL3; test: CCL3-induced PMN migration; type: cell-based; conditions: up to 10 μM
# Procedure: as §8
# [6] = test system: LPS-induced PGE2 accumulation; test: LPS-induced PGE2 production in peritoneal murine macrophages; type: cell-based, mouse; conditions: up to 10 μM, LPS 1 μg/ml, 24 h
# Procedure: Cells were placed at 1 × 10^6 ml^−1 in 96-well plates and non-adherent cells removed by gentle washing 2 h later. DF3016A was then added to adherent macrophages 20 min before adding lipopolysaccharide (LPS) (1 μg ml^−1). Control cells received vehicle at the appropriate dilution. Total prostaglandin E2 (PGE2) production was determined in the supernatant 24 h after LPS stimulation. PGE2 levels were measured by Enzyme Immunoassay (EIA) Kit (sensitivity 2.5 pg per well).
# [7] = test system: spontaneous cell migration; test: Spontaneous PMN migration; type: cell-based
# Procedure: as §8
# [8] = Rat oral pharmacokinetics; type: in vivo
# C5aR gene expression = C5aR gene expression (qRT-PCR) in OGD/R neurons; type: cell-based, rat; conditions: 500 nM
# Procedure: (§4) The total RNA, including microRNA (miRNA), from cells in cultures were extracted with Ribospin Kit (GenaAll) followed by Riboclear Plus Kit (GenaAll) to remove residual DNA according to the manufacturer’s protocols.
# (§5) Total mRNA transcription (2μg/20 μl) was performed using High Capacity cDNA Reverse Transcription Kit (Applied Biosystems) and reverse transcription for MicroRNA (10 ng/15 μl) was performed using TaqMan MicroRNA Reverse Transcription Kit (Applied Biosystems).
# (§6) The qPCR 20 μl/reactions for miR-181a (assay ID: hsa-miR-181a) and C5aR (assay ID: Rn02134203_s1) were conducted in triplicate using TaqMan® MicroRNA Assay Kit and TaqMan® Gene Expression Assays protocol (Applied Biosystems), respectively, following the manufacturer’s instructions. Reactions were performed using a Step One Plus Applied Biosystems thermocycler (Life Technologies) with the default protocol. Briefly, for each reaction 40 cycles of amplification with the following profile were performed: 95 °C for 10 min for the first cycle, followed by 40 cycles of 95 °C for 15 s, and 60 °C for 1 min.
# (§7) Relative intensity of PCR-specific amplicons was calculated using the 2^−ΔΔCt method (Livak and Schmittgen [2001]). Beta-actin (assay ID: Rn00667869_m1) and U6 (assay ID: 001973) small nuclear RNA (snRNA) (Han et al. [2015]) were used as internal control to normalize the level of each transcript.
# [9] = test system: panel of GPCRs, enzymes, ion channels, transporters, and nuclear receptors (44 targets); test: SafetyScreen44 Panel radioligand binding (Eurofins Cerep); conditions: 10 μM, triplicate
# Procedure: DF3016A was tested in the SafetyScreen44 Panel performed at Eurofins Cerep SA (France) by radio ligand binding assays to assess the off-target activities towards a panel of GPCRs, enzymes, ion channels, transporters, and nuclear receptors. All selected targets are recommended by four major pharmaceutical companies (Bowes et al. [2012]). The compound was tested at a single concentration of 10 μM in triplicate.
# DF3016A was dissolved in dimethyl sulfoxide (DMSO) to achieve 10 mM stock solution that was diluted with water/HBSS to a final concentration of 10 μM. Cell membrane homogenates (48 μg protein) were incubated for 60 min at 22 °C with the respective reference compound in the absence or presence of the test compound in a buffer containing 50 mM Tris-HCl (pH 7.4), 2 mM MgCl2, and 1 mM ethylene-diamine-tetra-acetic acid (EDTA). After incubation, the samples were filtered rapidly under vacuum through glass fiber filters (GF/B, Packard Instruments, Meriden, CT, USA) presoaked with 0.3% polyethyleneimine (PEI), and rinsed several times with ice-cold 50 mM Tris-HCl using a 96-sample cell harvester (Unifilter, Packard Instruments). The filters were dried, then counted for radioactivity in a scintillation counter (Topcount, Packard Instruments) using a scintillation cocktail (Microscint-O, Packard Instruments).
# [10] = rat, in vivo, po, 30 mg/kg
# Procedure: SD rats (370–450 g and 3–4 months of age at the time of testing) were purchased from Charles River, UK. All animals were housed in groups of three per room under controlled conditions of temperature (19 to 21 °C) and humidity (50%), and maintained on a 12-h light/dark cycle (lights on at 7 and lights off at 19 including a 30-min dawn/dusk lights increasing/dimming period, respectively). Animals had free access to rat chow pellets CRM (P) and water except during the experimental procedures. All animals were weighed immediately before the test. The test drug was administered orally at 30 mg/kg using saline solution (0.9% NaCl) as vehicle. […] Cardiac blood samples, 0.6 ml, were obtained and placed in EDTA-coated tubes. The tubes were spun at 13,000 rpm for 4 min and 100 μl of supernatant taken and immediately stored at − 80 °C prior to analysis. Plasma samples were analyzed by liquid chromatography–mass spectrometry (LC-MS/MS) following extraction by protein precipitation with internal standard in acetonitrile, and levels of parent measured against an extracted calibration curve of plasma samples spiked with test compound. The whole brain was harvested then placed in a plastic tube and immediately frozen at − 80 °C until required. Brain tissue were homogenized and analyzed by LC-MS/MS following extraction by protein precipitation, and levels of parent measured against an extracted calibration curve of brain homogenate samples spiked with the test compound. Total exposure levels of the test compound in brain and plasma at 2 h postdose were determined.
# miR-181a = miR-181a expression (qPCR) in OGD/R neurons; type: cell-based, rat; conditions: 500 nM, P < 0.001 OGD/R-DF vs OGD/R-UT
# Procedure: as §4, §5, §6, §7
# C5a protein level = test: C5a protein release (ELISA) in OGD/R neurons; type: cell-based, rat; conditions: 500 nM
# Procedure: as §3
# IL-1β = IL-1β release (ELISA) in OGD/R neurons; type: cell-based, rat; conditions: 500 nM
# Procedure: as §3
# [11] = test system: cortical neurons exposed to OGD/R; conditions: 500 nM, 1 h OGD, 3 to 48 h of reperfusion
# Procedure: DF3016A (500 nM) was added to the cortical neurons which were exposed to O2 and glucose deprivation with glucose-free Neurobasal in Hypoxia Chamber for Cell Culture (BioSpherix) at 5% CO2 atmosphere-[…]. O2 concentration was monitored by using a ProOx sensor controller, and the 0.03% O2 value was considered acceptable. Cells were incubated in this anaerobic chamber for 1 h and then removed from the anaerobic environment. […] Cells of control group were treated identically except that they were not exposed to OGD/R.
# [12] = Rat brain tissue binding (rBTB); type: in vitro ADME
# [13] = Rat plasma protein binding (rPPB); type: in vitro ADME
# [14] = test system: PMN migration induced by CXCL12; test: CXCL12-induced PMN migration; type: cell-based; conditions: up to 10 μM
# Procedure: as §8
# [15] = test system: PMN migration induced by CXCL1; test: CXCL1-induced PMN migration; type: cell-based; conditions: up to 10 μM
# Procedure: as §8
# C5aR = C5aR (Homo sapiens, UniProt P21730); conditions: read-out: IC50, inhibition of C5a-induced human PMN migration; human PMNs, 10 nM C5a
# Sequence of C5aR (P21730 whole entry): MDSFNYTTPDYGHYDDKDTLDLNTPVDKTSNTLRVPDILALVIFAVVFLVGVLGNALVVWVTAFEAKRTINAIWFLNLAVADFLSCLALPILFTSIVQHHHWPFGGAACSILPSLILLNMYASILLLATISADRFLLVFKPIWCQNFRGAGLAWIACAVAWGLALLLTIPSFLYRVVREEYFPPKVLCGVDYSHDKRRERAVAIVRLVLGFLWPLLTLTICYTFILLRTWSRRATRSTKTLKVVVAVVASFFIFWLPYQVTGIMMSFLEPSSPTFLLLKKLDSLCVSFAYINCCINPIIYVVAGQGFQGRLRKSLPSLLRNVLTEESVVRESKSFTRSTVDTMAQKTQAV
# Procedure: as §2
# [16] = test system: Ca2+ influx in OGD/R neurons; test: Fluo-4 NW calcium assay in OGD/R neurons; type: cell-based, rat; conditions: 500 nM, P < 0.001 OGD/R-DF vs OGD/R-UT
# Procedure: Neuronal cells, grown on 96-well plates, were exposed to OGD/R and treated with 500 nM of DF3016A; growth media were removed, and 100 μl of the dye loading solution (F36206 Fluo-4 NW Calcium Assay Kit, Invitrogen) was added carefully to each well. Plates were incubated at 37 °C for 30 min and then at room temperature for an additional 30 min. […] Data were presented as the ratio between Ca^++ influx and neuronal viability.
# Sequence of mouse C5aR (P30993 whole entry): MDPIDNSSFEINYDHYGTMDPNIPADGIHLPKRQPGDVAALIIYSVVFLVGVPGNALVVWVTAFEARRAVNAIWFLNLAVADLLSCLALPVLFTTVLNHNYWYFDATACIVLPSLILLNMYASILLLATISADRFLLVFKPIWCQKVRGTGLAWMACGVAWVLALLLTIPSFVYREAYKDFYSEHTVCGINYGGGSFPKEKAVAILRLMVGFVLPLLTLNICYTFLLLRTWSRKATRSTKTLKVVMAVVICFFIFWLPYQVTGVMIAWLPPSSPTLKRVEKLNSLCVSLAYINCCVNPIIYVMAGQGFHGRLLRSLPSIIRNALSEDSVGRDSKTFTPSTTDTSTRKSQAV
structure (smiles),measurement,setting,value
CC(c1ccc(Nc2nc(C(F)(F)F)cs2)cc1)c1nnn[nH]1 (stereo not shown) [DF3016A],Effect on PMN migration induced by fMLP,[1],no effect
same,IC50,mouse C5aR,37 nM
same,IC50,rat C5aR,45 nM
same,Mortality compared to the control,"[2]; 10 nM to 5 μM, 24 h, MTS",no significant mortality
same,Viability changes on longer treatment,"[2]; 500 nM, 24, 48, and 72 h",without significant viability changes
same,TNF-α release after OGD/R,TNF-α,restoration of control conditions
same,Neuronal death by AO/ET staining,[3],close to that of control
same,Effect on PMN migration induced by CXCL8,[4],no effect
same,Effect on PMN migration induced by CCL3,[5],no effect
same,Effect on LPS-induced PGE2 accumulation,[6],no effect
same,Inhibition of spontaneous cell migration per se,[7],did not inhibit
same,Oral t1/2,[8],6.1 h
same,Rat bioavailability,[8],69%
same,C5aR gene expression after OGD/R,C5aR gene expression,reverted C5aR gene expression to the control levels
same,"Inhibition of the assayed receptors (off-target activities, 44 targets)",[9],did not show any inhibition
same,Plasma Cmax,[10],"104,683 ± 8867 ng/mL"
same,Kp (brain to plasma ratio),[10]; 2 h,0.04
same,Kpuu (unbound brain to plasma ratio),[10]; 2 h,0.44
same,miR-181a over-expression after OGD/R,miR-181a,completely attenuated
same,C5a protein level after OGD/R,C5a protein level,restored C5a protein level to not significant values compared to control
same,IL-1β release after OGD/R,IL-1β,restoration of control conditions
same,Effect on OGD/R-induced cell death (MTS),[11],significantly attenuated OGD/R-induced cell death
same,rBTB Fu (free brain fraction),[12],7.7%
same,rPPB Fu (free plasma fraction),[13],0.7%
same,Effect on PMN migration induced by CXCL12,[14],no effect
same,Effect on PMN migration induced by CXCL1,[15],no effect
same,IC50,C5aR,50 nM
same,Ca2+ influx in OGD/R neurons,[16],significant reduction
